Experimental data published in patent publication US20240009191A1, “METHOD AND COMPOSITION FOR THE TREATMENT OF DISEASE” (DIMERIX BIOSCIENCE PTY LTD, priority 2019, published 2024).

Experiments:
AT1R = biological target: T1, AT1R (Homo sapiens, UniProt P30556); test: BRET trafficking of AT1R/Rluc8 to Venus/Kras or Venus/Rab markers, absence of CXCR2; assay type: cell-based; details: 100 nM CXCL8, 1 μM AngII
T1 construct: expressed in transfected cells; host or cells: HEK293FT
T1 sequence (P30556 1-359): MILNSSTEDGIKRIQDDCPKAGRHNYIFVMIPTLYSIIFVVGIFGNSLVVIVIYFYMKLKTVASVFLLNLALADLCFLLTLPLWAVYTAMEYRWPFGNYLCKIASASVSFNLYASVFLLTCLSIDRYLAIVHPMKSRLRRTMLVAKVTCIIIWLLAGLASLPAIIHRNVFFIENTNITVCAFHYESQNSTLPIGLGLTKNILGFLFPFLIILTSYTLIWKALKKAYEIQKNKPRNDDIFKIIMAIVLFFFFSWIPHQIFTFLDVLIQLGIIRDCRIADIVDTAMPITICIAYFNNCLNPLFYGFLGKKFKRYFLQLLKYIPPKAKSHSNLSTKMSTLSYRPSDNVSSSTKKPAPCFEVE
Procedure: (§1) HEK293FT cells were seeded in 6-well plates at a density of approximately 700,000 cells/well and maintained at 37° C., 5% CO2 in Complete Media (DMEM containing 0.3 mg/ml glutamine, 100 IU/ml penicillin and 100 μg/ml streptomycin (Gibco/Thermo Fisher)) supplemented with 10% fetal calf serum (FCS; Bovogen). Transient transfections were carried out 24 h after seeding using FuGene6™ (Promega) according to manufacturer instructions. 24 h post-transfection, cells were washed with PBS, detached using 0.05% trypsin/0.53 mM EDTA, resuspended in HEPES-buffered phenol red free Complete Media containing 5% FCS and added to a poly-L-lysine-coated white 96-well microplate (Greiner Bio-One). 48 h post-transfection, bioluminescence resonance energy transfer (BRET) assays were carried out following pre-incubation of cells with EnduRen™ (Promega) at a final concentration of 30 μM, at 37° C., 5% CO2 for 2 h. BRET measurements were taken at 37° C. using the LUMlstar™ or CLARIOstar™ (BMG Labtech). Filtered light emissions were measured for 1 s in each of the ‘donor wavelength window’ (460-490 nm for LUMlstar™ or 410-490 nm for CLARIOstar™) and ‘acceptor wavelength window’ (520-550 nm for LUMlstar™ or 520-620 nm for CLARIOstar™).
The BRET signal observed between interacting proteins is normalized by subtracting the background BRET ratio. This can be done in one of two ways (see Pfleger et al. (2006) Cell Signal 18:1664-1670; Pfleger et al. (2006) Nat Protoc 1:336-344): 1) the ratio of the 520-550 nm or 520-620 nm emission over the 460-490 nm or 410-490 nm emission for a cell sample containing only the donor construct is subtracted from the same ratio for a sample containing the interacting acceptor and donor fusion proteins; 2) the ratio of the 520-550 nm or 520-620 nm emission over the 460-490 nm or 410-490 nm emission for a cell sample treated with vehicle is subtracted from the same ratio for a second aliquot of the same cell sample treated with ligand. In the following examples, the second calculation will be used and the signal is described as ligand-induced BRET′. Furthermore, for data shown in FIGS. 4 to 20, all data points in a given set are corrected relative to the final data point prior to agonist treatment, which is fixed to zero. In keys on FIGS. 7 to 20, “>” means “followed by after 50 minutes”, with agonists added at time zero on the x-axes.
Referring now to FIG. 3 (published in Tiulpakov et al (2016) Mol. Endocrinol. 30, 889-904), the proximity of Rluc8-tagged receptors to Venus-tagged Kras plasma membrane marker, or Venus-tagged Rabs specific for distinct subcellular locations, is monitored in live cells and in real-time using BRET. The Rab markers are: Venus/Rab5 (5) for early endosomes; Venus/Rab4 (4) for early endosome recycling; Venus/Rab11a (11) for recycling endosomes; Venus/Rab7 (7) for late endosomes/lysosomes; Venus/Rab9 (9) for late endosome trafficking to the trans-Golgi network; Venus/Rab1 (1) for endoplasmic reticulum trafficking to the cis-Golgi; Venus/Rab6 (6) for Golgi apparatus and trans-Golgi network; or Venus/Rab8 (8) for trans-Golgi network to plasma membrane.

CXCR2 = biological target: T2, CXCR2 (Homo sapiens, UniProt P25025); test: BRET Gi coupling, CXCR2/Rluc8 and Venus/mGsi without HA-AT1R, HEK293FT cells; assay type: cell-based; details: 100 nM CXCL8, 1 μM AngII, FIG. 1A
T2 sequence (P25025 1-360): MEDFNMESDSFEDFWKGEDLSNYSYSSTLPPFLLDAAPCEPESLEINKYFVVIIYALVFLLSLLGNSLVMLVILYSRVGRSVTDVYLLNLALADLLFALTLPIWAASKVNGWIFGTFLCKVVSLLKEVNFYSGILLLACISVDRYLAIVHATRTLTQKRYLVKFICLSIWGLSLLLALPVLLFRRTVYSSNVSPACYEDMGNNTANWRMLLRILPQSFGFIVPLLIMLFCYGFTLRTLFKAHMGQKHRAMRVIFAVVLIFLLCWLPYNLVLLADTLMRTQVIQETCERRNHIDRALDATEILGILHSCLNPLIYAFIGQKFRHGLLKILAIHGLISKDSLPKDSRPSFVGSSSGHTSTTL
Procedure: as §1
The BRET signal observed between interacting proteins is normalized by subtracting the background BRET ratio. […]

Angiotensin II [AngII] was tested, and the “proximity of AT1R/Rluc8 to Venus/Rab6 (BRET)” value (AT1R; Golgi apparatus to trans-Golgi network, FIG. 5I) was “little effect”, the “proximity of AT1R/Rluc8 to Venus/Rab4 (BRET)” value (AT1R; early endosome recycling, FIG. 5E) was “increase” and the “proximity of AT1R/Rluc8 to Venus/Rab5 (BRET)” value (AT1R; early endosomes, FIG. 5G) was “substantial increase”. For the same substance, the “proximity of AT1R/Rluc8 to Venus/Rab1 (BRET)” value (AT1R; endoplasmic reticulum to cis-Golgi, FIG. 5C) was “increase”, the “proximity of AT1R/Rluc8 to Venus/Rab9 (BRET)” value (AT1R; late endosome to trans-Golgi network, FIG. 5O) was “increase” and the “proximity of AT1R/Rluc8 to Venus/Rab7 (BRET)” value (AT1R; late endosomes/lysosomes, FIG. 5K) was “increase”. The “proximity of AT1R/Rluc8 to Venus/Kras (BRET)” value (AT1R; plasma membrane marker, FIG. 5A) was “marked reduction”, the “proximity of AT1R/Rluc8 to Venus/Rab11a (BRET)” value (AT1R; recycling endosomes, FIG. 5Q) was “substantial increase” and the “proximity of AT1R/Rluc8 to Venus/Rab8 (BRET)” value (AT1R; trans-Golgi network to plasma membrane, FIG. 5M) was “small increase at later time-points”. For the same substance, the “ligand-induced BRET signal, CXCR2/Rluc8 and Venus/mGsi” value (CXCR2) was “did not result in an increase”.
